This note sets out measurements from patent publication US6096770A, “Anthranilic acid analogs” (American Home Products Corporation, priority 1998, dated 2000).

Test [1] has as its system Isolated Rat Bladder Strips. The test is described as follows: Inhibition of Contractions in Isolated Rat Bladder Strips (15 mM KCl-enhanced contractile activity). Format: tissue-based, Sprague-Dawley rats. The note with it: for IC50: 0.5 h, 15 mM KCl, 37 deg. C., pH 7.4, 30 minute challenge, read-out: IC50 Bladder (B): concentration required to elicit 50% inhibition of pre-drug contractile activity. The method, then:
Sprague-Dawley rats (150-200 g) are rendered unconscious by CO2 asphyxiation and then euthanized by cervical dislocation. […] The bladder is opened and then cut into strips 1-2 mm in width and 7-10 mm in length. The strips are subsequently suspended in a 10 mL tissue bath under an initial resting tension of 1.5 g. The strips are held in place by two surgical clips one of which is attached to a fixed hook while the other is attached to an isometric force transducer. […] The carbachol is then washed out and the tissue allowed to relax to its resting level of activity. Following a further 30 min period of recovery an additional 15 mM KCl are introduced into the tissue bath. […] Following stabilization of this enhanced level of contractile activity, incremental increases in the concentration of test compound or vehicle are introduced into the tissue bath. Contractile activity is measured for each compound or vehicle concentration during the last minute of a 30 minute challenge.

In test [2] the test system is Aorta. The test can be described thus: Inhibition of contractions in aorta (indication of selectivity, Table I). Format: cell-based. The note with it: for IC50 (A)/IC50 (B): selectivity ratio aorta / bladder.

Each structure is given as a SMILES string. Read-outs that look alike come from different tables or passages of the source.

Consider `O=C(Nc1ccccc1C(=O)O)C1=C(c2ccc(C(F)(F)F)cc2)CCC1` [Example 1, 2-{[2-(4-Trifluoromethyl-phenyl)-cyclopent-1-enecarbonyl]-amino}-benzoic acid], for which the IC50 in test [1] (isolated rat bladder strips) is 11 ± 4.04 µM. As to `O=C(O)c1ccccc1NC(=O)c1ncoc1-c1ccc(C(F)(F)F)cc1` [Example 2, 2-{[5-(4-Trifluoromethyl-phenyl)-oxazole-4-carbonyl]-amino}-benzoic acid], in test [1] (isolated rat bladder strips), the IC50 amounted to 17.9 ± 5.8 µM.

Turning to `O=C([O-])c1ccccc1NC(=O)c1ncoc1-c1ccc(C(F)(F)F)cc1.[Li+]` [Example 3, 2-{[5-(4-Trifluoromethyl-phenyl)-oxazole-4-carbonyl]-amino}-benzoic acid lithium salt], the IC50 in test [1] (Rattus norvegicus, pH 7.4, isolated rat bladder strips) amounted to 17.5 ± 12.4 µM; in test [2], 7.35 ± 0.25 µM. Further, in test [2], the “IC50 (A)/IC50 (B)” value was found to be 0.42. For the compound `Cc1noc(-c2ccc(C(F)(F)F)cc2)c1C(=O)Nc1ccccc1C(=O)O` [Example 4, 2-{[3-Methyl-5-(4-trifluoromethyl-phenyl)-isoxazole-4-carbonyl]-amino}-benzoic acid], the IC50 in test [1] (isolated rat bladder strips) was 11.9 ± 3.95 µM. As to `COc1ccc(/C=C/C(=O)Nc2ccccc2C(=O)O)cc1OC` [Tranilast, reference compound], the “potency and bladder selectivity as smooth muscle relaxant (in words)” value in test [1] (in vitro, Table 1) was “not to be a potent or bladder selective smooth muscle relaxant”. In addition, the “IC50 (A)/IC50 (B)” value in test [2] is 1.08.
